# Experimental data: patent US7754727B2, “4-phenylpiperidine derivatives as renin inhibitors” (Novartis AG, priority 2003, dated 2010)
# Structures can show the parent of a compound that is named as a salt.
# Target: T1, Recombinant human renin (Homo sapiens, UniProt P00797)
# T1 construct: made in house; host or cells: Chinese Hamster Ovary cells
# T1 sequence (P00797 67-406): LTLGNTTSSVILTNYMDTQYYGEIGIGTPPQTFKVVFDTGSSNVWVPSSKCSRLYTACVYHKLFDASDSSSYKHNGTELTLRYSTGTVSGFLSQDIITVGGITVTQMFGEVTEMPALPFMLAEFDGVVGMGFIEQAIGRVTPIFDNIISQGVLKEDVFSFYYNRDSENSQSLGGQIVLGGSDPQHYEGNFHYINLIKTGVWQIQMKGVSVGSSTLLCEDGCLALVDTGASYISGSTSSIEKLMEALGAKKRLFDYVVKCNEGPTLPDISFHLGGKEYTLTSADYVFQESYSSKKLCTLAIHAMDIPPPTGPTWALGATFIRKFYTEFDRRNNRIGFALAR
# Assay: FRET assay of inhibition of renin activity
# Format: biochemical
# Conditions: recombinant human renin 4 nM, 1 h at RT, pH 7.4
# Procedure: Recombinant human renin (expressed in Chinese Hamster Ovary cells and purified using standard methods) at 4 nM concentration is incubated with test compound at various concentrations for 1 h at RT in 0.1 M Tris-HCl buffer, pH 7.4, containing 0.05 M NaCl, 0.5 mM EDTA and 0.05% CHAPS. Synthetic peptide substrate Arg-Glu(EDANS)-Ile-His-Pro-Phe-His-Leu-Val-Ile_His_Thr-Lys(DABCYL)-Arg9 is added to a final concentration of 2 μM and increase in fluorescence is recorded at an excitation wave-length of 340 nm and at an emission wave-length of 485 nm in a microplate spectro-fluorimeter. IC50 values are calculated from percentage of inhibition of renin activity as a function of test compound concentration (Fluorescence Resonance Energy Transfer, FRET, assay).
structure (smiles),measurement,value
"c1ccc(-c2cccc([C@H]3CCNC[C@@H]3OCc3ccc4ccccc4c3)c2)cc1 (relative stereo) [Example 1, (3R*,4R*)-4-Biphenyl-3-yl-3-(naphthalen-2-ylmethoxy)-piperidine hydrochloride]",IC50,~70 nM
